In ChEMBL document CHEMBL1933003, “Cytotoxic esterified diterpenoid alkaloid derivatives with increased selectivity against a drug-resistant cancer cell line” (Bioorg Med Chem Lett, 2012):

Experiments:
A549 = experiment: Cytotoxicity against human A549 cells by sulforhodamine B assay; assay type: functional, cell-based
DU-145 = experiment: Cytotoxicity against human DU145 cells by sulforhodamine B assay; assay type: functional, cell-based
KB [1] = experiment: Cytotoxicity against human KB cells by sulforhodamine B assay; assay type: functional, cell-based
KB [2] = experiment: Cytotoxicity against multi-drug resistant variant vincristine resistant human KB cells expressing P-glycoprotein by sulforhodamine B assay; assay type: functional, cell-based
KB [3] = experiment: Selectivity ratio of EC50 for human KB cells to EC50 for multi-drug resistant variant vincristine resistant human KB cells expressing P-glycoprotein by sulforhodamine B assay; assay type: functional

SMILES	EC50 (A549) [µM]	EC50 (DU-145) [µM]	EC50 (KB [1]) [µM]	EC50 (KB [2]) [µM]	Ratio EC50 (KB [3])
CCN1C[C@]2(C)CC[C@H](OC)[C@@]34C1[C@@]1(OCO[C@@]15C[C@H](OC)[C@H]1C[C@@H]3[C@@H]5[C@H]1OC)[C@@H](OC(=O)c1ccc(C(=O)OC)cc1)[C@H]24 (single isomer, unassigned)	> 20	> 20	> 20	> 20	–
CCN1C[C@]2(C)CC[C@H](OC)[C@@]34C1[C@@]1(OCO[C@@]15C[C@H](OC)[C@H]1C[C@@H]3[C@@H]5[C@H]1OC)[C@@H](OC(=O)c1ccc([N+](=O)[O-])cc1)[C@H]24 (single isomer, unassigned)	> 20	17.2	> 20	17.7	–
CCOc1ccc(C(=O)O[C@H]2[C@@H]3[C@@]4(C)CC[C@H](OC)[C@]35C(N(CC)C4)[C@@]23OCO[C@@]32C[C@H](OC)[C@H]3C[C@@H]5[C@@H]2[C@H]3OC)cc1 (single isomer, unassigned)	20	15.6	14.8	6.5	2.28
CCN1C[C@]2(C)CC[C@H](OC)[C@@]34[C@@H]5C[C@H]6[C@H](OC)[C@@H]5[C@@]5(C[C@@H]6OC)OCO[C@@]5([C@@H](OC(=O)c5cccc(C(F)(F)F)c5)[C@H]23)[C@@H]14	> 20	12.6	14.9	11.9	1.25
CCN1C[C@]2(C)CC[C@H](OC)[C@@]34[C@@H]5C[C@H]6[C@H](OC)[C@@H]5[C@@]5(C[C@@H]6OC)OCO[C@@]5([C@@H](OC(=O)c5ccc(C(F)(F)F)c(F)c5)[C@H]23)[C@@H]14	16.5	11.3	5.44	4.4	1.24
CCN1C[C@]2(C)CC[C@H](OC)[C@@]34[C@@H]5C[C@H]6[C@H](OC)[C@@H]5[C@@]5(C[C@@H]6OC)OCO[C@@]5([C@@H](OC(=O)c5ccc(OCc6ccccc6)cc5)[C@H]23)[C@@H]14	14.1	13.2	6.76	4.22	1.6
CCN1C[C@]2(C)CC[C@H](OC)[C@@]34[C@@H]5C[C@H]6[C@H](O)[C@@H]5[C@@]5(C[C@@H]6OC)OCO[C@@]5(C(=O)[C@H]23)[C@@H]14 [YUNNADELPHININE]	> 20	> 20	> 20	> 20	–
CCN1C[C@]2(C)CC[C@H](OC)[C@@]34C1[C@@]1(OCO[C@@]15C[C@H](OC)[C@H]1C[C@@H]3[C@@H]5[C@H]1OC)[C@@H](OC(=O)c1ccc(F)cc1)[C@H]24 (single isomer, unassigned)	> 20	15.6	> 20	15	–
CCN1C[C@]2(C)CC[C@H](OC)[C@@]34C1[C@@]1(OCO[C@@]15C[C@H](OC)[C@H]1C[C@@H]3[C@@H]5[C@H]1OC)[C@@H](OC(=O)c1cc(OC)c(OC)c(OC)c1)[C@H]24 (single isomer, unassigned)	> 20	> 20	> 20	> 20	–
CCN1C[C@]2(C)CC[C@H](OC)[C@@]34[C@@H]5C[C@H]6[C@H](OC)[C@@H]5[C@@]5(C[C@@H]6OC)OCO[C@@]5([C@@H](OC(=O)/C=C/c5cccc(C(F)(F)F)c5)[C@H]23)[C@@H]14	10.2	15.1	> 20	9.1	>2.31
CCN1C[C@]2(C)CC[C@H](OC)[C@@]34[C@@H]5C[C@H]6[C@H](OC)[C@@H]5[C@@]5(C[C@@H]6OC)OCO[C@@]5([C@@H](OC(=O)c5ccc(Cl)cc5)[C@H]23)[C@@H]14	14.8	7.4	8.85	8.27	1.07
CCN1C[C@]2(C)CC[C@H](OC)[C@@]34[C@@H]5C[C@H]6[C@H](OC)[C@@H]5[C@@]5(C[C@@H]6OC)OCO[C@@]5([C@@H](OC(=O)c5ccc(C(F)(F)F)nc5)[C@H]23)[C@@H]14	> 20	> 20	> 20	18.7	–
CCN1C[C@]2(C)CC[C@H](OC)[C@@]34C1[C@@]1(OCO[C@@]15C[C@H](OC)[C@H]1C[C@@H]3[C@@H]5[C@H]1OC)[C@@H](OC(=O)c1ccc(OC(F)(F)F)cc1)[C@H]24 (single isomer, unassigned)	18.7	20.3	20.1	18.9	–
CCN1C[C@]2(C)CC[C@H](OC)[C@@]34[C@@H]5C[C@H]6[C@H](OC)[C@@H]5[C@](O)(C[C@@H]6OC)[C@](O)([C@@H](O)[C@H]23)[C@@H]14	> 20	> 20	> 20	> 20	–
CCN1C[C@]2(C)CC[C@H](OC)[C@@]34C1[C@@]1(OCO[C@@]15C[C@H](OC)[C@H]1C[C@@H]3[C@@H]5[C@H]1O)[C@@H](O)[C@H]24 [DELPHELINE]	> 20	> 20	> 20	> 20	–
CCN1C[C@]2(C)CC[C@H](OC)[C@@]34[C@@H]5C[C@H]6[C@H](OC)[C@@H]5[C@@]5(C[C@@H]6OC)OCO[C@@]5([C@@H](OC(=O)c5ccc(F)c(C)c5)[C@H]23)[C@@H]14	> 20	19.8	12.1	4.71	2.57
CCN1C[C@]2(C)CC[C@H](OC)[C@@]34C1[C@@]1(OCO[C@@]15C[C@H](OC)[C@H]1C[C@@H]3[C@@H]5[C@H]1OC)[C@@H](OC(=O)c1cc(F)c(F)c(F)c1)[C@H]24 (single isomer, unassigned)	19.9	16.9	14.6	6.8	2.15
CCN1C[C@]2(C)CC[C@H](OC)[C@@]34C1[C@@]1(OCO[C@@]15C[C@H](OC)[C@H]1C[C@@H]3[C@@H]5[C@H]1OC)[C@@H](OC(=O)c1ccc(SC(F)(F)F)cc1)[C@H]24 (single isomer, unassigned)	> 20	16.6	> 20	17.9	–
CCN1C(=O)[C@]2(C)CC[C@H](OC)[C@@]34[C@@H]5C[C@H]6[C@H](OC)[C@@H]5[C@@]5(C[C@@H]6OC)OCO[C@@]5([C@@H](O)[C@@H]32)[C@@H]14	> 20	> 20	> 20	> 20	–
CCN1C[C@]2(C)CC[C@H](OC)[C@@]34C1[C@@]1(OCO[C@@]15C[C@H](OC)[C@H]1C[C@@H]3[C@@H]5[C@H]1OC)[C@@H](OC(=O)c1ccc(OC)cc1)[C@H]24 (single isomer, unassigned)	> 20	> 20	> 20	> 20	–
CCN1C[C@]2(C)CC[C@H](OC)[C@@]34C1[C@@]1(OCO[C@@]15C[C@H](OC)[C@H]1C[C@@H]3[C@@H]5[C@H]1OC)[C@@H](OC(=O)c1ccc(-c3ccccc3)cc1)[C@H]24 (single isomer, unassigned)	> 20	17.1	> 20	17.4	–
CCN1C[C@]2(C)CC[C@H](OC)[C@@]34[C@@H]5C[C@H]6[C@H](OC)[C@@H]5[C@@]5(C[C@@H]6OC)OCO[C@@]5(C(=O)[C@H]23)[C@@H]14 [PACININE]	> 20	> 20	> 20	> 20	–
CC(=O)O[C@H]1C(=O)[C@@]2(C)[C@H]([C@H](OC(=O)c3ccccc3)[C@]3(O)C[C@H](OC(=O)[C@H](O)[C@@H](NC(=O)c4ccccc4)c4ccccc4)C(C)=C1C3(C)C)[C@]1(OC(C)=O)CO[C@@H]1C[C@@H]2O [PACLITAXEL]	0.0064	0.0059	0.006	0.76	–
CCN1C[C@]2(C)CC[C@H](OC)[C@@]34C1[C@@]1(OCO[C@@]15C[C@H](OC)[C@H]1C[C@@H]3[C@@H]5[C@H]1OC)[C@@H](OC(=O)c1cc([N+](=O)[O-])cc([N+](=O)[O-])c1)[C@H]24 (single isomer, unassigned)	> 20	> 20	19.1	20.3	–
CCN1C[C@]2(C)CC[C@H](OC)[C@@]34[C@@H]5C[C@H]6[C@H](OC)[C@@H]5[C@@]5(C[C@@H]6OC)OCO[C@@]5([C@@H](OC(=O)/C=C/c5ccc(F)cc5)[C@H]23)[C@@H]14	> 20	> 20	> 20	> 20	–
CCN1C[C@]2(C)CC[C@H](OC)[C@@]34[C@@H]5C[C@H]6[C@H](OC)[C@@H]5[C@](O)(C[C@@H]6OC)[C@](O)([C@@H](OC(=O)c5cccc(C(F)(F)F)c5)[C@H]23)[C@@H]14	> 20	> 20	> 20	> 20	–
